# From ChEMBL document CHEMBL1130646, “Excellent acceleration of the Diels-Alder reaction by microwave irradiation for the synthesis of new fluorine-substituted ligands of NMDA receptor” (Bioorg Med Chem Lett, 1998)
# Target: Glutamate NMDA receptor
# Experiment: Displacement of [3H]TCP from the TCP site of NMDA receptor in rat brain homogenate
# Format: tissue-based
row,SMILES,IC50 [nM]
1,OCCc1ccc(C2(c3ccc(CCO)s3)CC3c4ccccc4C2c2cccc[n+]23)s1 (configuration not stated),12400
2,FCCc1ccc(C2(c3cccs3)CC3c4ccccc4C2c2cccc[n+]23)s1 (stereo in doubt; 18),47
3,c1ccc(C2(N3CCCCC3)CCCCC2)cc1 [PHENCYCLIDINE],47
4,OCCc1ccc(C2(c3cccs3)CC3c4ccccc4C2c2cccc[n+]23)s1 (stereo in doubt; 20),61
5,c1csc(C2(c3cccs3)CC3c4ccccc4C2c2cccc[n+]23)c1 (configuration not stated),3.6
6,FCCc1ccc(C2(c3cccs3)CC3c4ccccc4C2c2cccc[n+]23)s1 (stereo in doubt; 19),89
7,OCCc1ccc(C2(c3cccs3)CC3c4ccccc4C2c2cccc[n+]23)s1 (stereo in doubt; 21),141
